According to publication PMC7291858, “An Enhanced Variant Designed From DLP4 Cationic Peptide Against Staphylococcus aureus CVCC 546” (Frontiers in Microbiology, 2020):
Peptide text beside a SMILES is read from it.

Key:
[1] = tested on: S. aureus ATCC 43300; format: cell-based, Staphylococcus aureus; conditions: microtiter, serial 2-fold dilutions, 37°C, 16∼20 h, triplicate; – = no activity
Protocol: (§1) The minimal inhibitory concentration (MIC) was evaluated by a microtiter plate assay ([Wiegand et al., 2008]). Serial 2-fold dilutions of test peptides were placed into a 96-well plate containing identical bacterial inoculum and incubated at 37°C for 16∼20 h. Vancomycin was used as antibiotic control. The MIC value was defined as the lowest peptide concentration where no visible growth occurred. All tests were made in triplicate.

[2] = tested on: Staphylococcus aureus CVCC 546; test: microbe, parasite or virus in culture; format: cell-based; conditions: Table 1; – = no activity
Protocol: as §1

Structure (SMILES)	A1 (MIC against S. aureus ATCC 43300) [1] [mg/L]	MIC [2]
CC[C@H](C)[C@@H]1NC(=O)[C@@H]2CSSC[C@@H](C(=O)N[C@@H](CCCNC(=N)N)C(=O)N[C@@H](CCCCN)C(=O)O)NC(=O)[C@H](CC(N)=O)NC(=O)[C@@H]3CSSC[C@H](NC(=O)[C@H](C)NC(=O)[C@H](C)NC(=O)[C@H](Cc4c[nH]cn4)NC(=O)CNC(=O)[C@H](C(C)C)NC(=O)[C@H](CCCCN)NC(=O)[C@H](Cc4ccccc4)NC(=O)[C@@H]4CCCN4C(=O)[C@H](CO)NC(=O)[C@H](CC(C)C)NC(=O)[C@H](CC(C)C)NC(=O)[C@H](CC(=O)O)NC(=O)[C@@H](NC(=O)[C@@H](NC(=O)[C@H](C)N)[C@@H](C)O)CSSC[C@H](NC(=O)[C@H](Cc4c[nH]c5ccccc45)NC(=O)CNC(=O)CNC(=O)[C@H](CCCNC(=N)N)NC(=O)[C@H](CCCCN)NC(=O)CNC(=O)[C@H](CCCNC(=N)N)NC(=O)[C@H](C)NC1=O)C(=O)N[C@@H](CC(=O)O)C(=O)N[C@@H](CCCCN)C(=O)N[C@@H](CCCNC(=N)N)C(=O)N[C@@H](C)C(=O)N[C@@H](C(C)C)C(=O)N3)C(=O)N[C@@H](C)C(=O)N[C@@H](C(C)C)C(=O)N[C@@H](Cc1c[nH]cn1)C(=O)N2 [ID28] (HELM PEPTIDE1{A.T.C.D.L.L.S.P.F.K.V.G.H.A.A.C.A.V.H.C.I.A.R.G.K.R.G.G.W.C.D.K.R.A.V.C.N.C.R.K}$PEPTIDE1,PEPTIDE1,3:R3-30:R3|PEPTIDE1,PEPTIDE1,16:R3-36:R3|PEPTIDE1,PEPTIDE1,20:R3-38:R3$$$V2.0; N-terminus and C-terminus assumed; bridges inferred)	8	16
CC[C@H](C)[C@@H]1NC(=O)[C@H](C)NC(=O)[C@H](CCCNC(=N)N)NC(=O)[C@H](CCCCN)NC(=O)[C@H](CC(=O)O)NC(=O)[C@@H]2CSSC[C@H](NC(=O)[C@@H](NC(=O)[C@H](C)N)[C@@H](C)O)C(=O)N[C@@H](CC(=O)O)C(=O)N[C@@H](CC(C)C)C(=O)N[C@@H](CC(C)C)C(=O)N[C@@H](CO)C(=O)N3CCC[C@H]3C(=O)N[C@@H](Cc3ccccc3)C(=O)N[C@@H](CCCCN)C(=O)N[C@@H](C(C)C)C(=O)NCC(=O)N[C@@H](Cc3c[nH]cn3)C(=O)N[C@@H](C)C(=O)N[C@@H](C)C(=O)N[C@H]3CSSC[C@H](NC1=O)C(=O)N[C@@H](CC(N)=O)C(=O)N[C@H](C(=O)N[C@@H](CCCNC(=N)N)C(=O)N[C@@H](CCCCN)C(=O)O)CSSC[C@H](NC(=O)[C@H](Cc1c[nH]cn1)NC(=O)[C@H](C)NC(=O)[C@H](C)NC3=O)C(=O)N[C@@H]([C@@H](C)CC)C(=O)N[C@@H](C)C(=O)N[C@@H](CCCNC(=N)N)C(=O)NCC(=O)N[C@@H](CCCCN)C(=O)N[C@@H](CCCNC(=N)N)C(=O)NCC(=O)NCC(=O)N[C@@H](Cc1c[nH]c3ccccc13)C(=O)N2 [ID30] (HELM PEPTIDE1{A.T.C.D.L.L.S.P.F.K.V.G.H.A.A.C.A.A.H.C.I.A.R.G.K.R.G.G.W.C.D.K.R.A.I.C.N.C.R.K}$PEPTIDE1,PEPTIDE1,3:R3-30:R3|PEPTIDE1,PEPTIDE1,16:R3-36:R3|PEPTIDE1,PEPTIDE1,20:R3-38:R3$$$V2.0; N-terminus and C-terminus assumed; bridges inferred)	16	32
CC[C@H](C)[C@@H]1NC(=O)[C@@H]2CSSC[C@@H](C(=O)N[C@@H](CCCNC(=N)N)C(=O)N[C@@H](CCCCN)C(=O)O)NC(=O)[C@H](CC(N)=O)NC(=O)[C@@H]3CSSC[C@H](NC(=O)[C@H](C)NC(=O)[C@H](C)NC(=O)[C@H](Cc4c[nH]cn4)NC(=O)CNC(=O)[C@H](C(C)C)NC(=O)[C@H](CCCCN)NC(=O)[C@H](Cc4ccccc4)NC(=O)[C@@H]4CCCN4C(=O)[C@H]([C@@H](C)O)NC(=O)[C@H](CC(C)C)NC(=O)[C@H](CC(C)C)NC(=O)[C@H](CC(=O)O)NC(=O)[C@@H](NC(=O)[C@@H](NC(=O)[C@H](C)N)[C@@H](C)O)CSSC[C@H](NC(=O)[C@H](Cc4c[nH]c5ccccc45)NC(=O)CNC(=O)CNC(=O)[C@H](CCCNC(=N)N)NC(=O)[C@H](CCCCN)NC(=O)CNC(=O)[C@H](CCCNC(=N)N)NC(=O)[C@H](C)NC1=O)C(=O)N[C@@H](CC(=O)O)C(=O)N[C@@H](CCCCN)C(=O)N[C@@H](CCCNC(=N)N)C(=O)N[C@@H](C)C(=O)N[C@@H](C(C)C)C(=O)N3)C(=O)N[C@@H](C)C(=O)N[C@@H](C)C(=O)N[C@@H](Cc1c[nH]cn1)C(=O)N2 [ID6] (HELM PEPTIDE1{A.T.C.D.L.L.T.P.F.K.V.G.H.A.A.C.A.A.H.C.I.A.R.G.K.R.G.G.W.C.D.K.R.A.V.C.N.C.R.K}$PEPTIDE1,PEPTIDE1,3:R3-30:R3|PEPTIDE1,PEPTIDE1,16:R3-36:R3|PEPTIDE1,PEPTIDE1,20:R3-38:R3$$$V2.0; N-terminus and C-terminus assumed; bridges inferred)	8	16
CC(C)C[C@@H]1NC(=O)[C@@H]2CSSC[C@@H](C(=O)N[C@@H](CCCNC(=N)N)C(=O)N[C@@H](CCCCN)C(=O)O)NC(=O)[C@H](CC(N)=O)NC(=O)[C@@H]3CSSC[C@H](NC(=O)[C@H](C)NC(=O)[C@H](C)NC(=O)[C@H](Cc4c[nH]cn4)NC(=O)CNC(=O)[C@H](C(C)C)NC(=O)[C@H](CCCCN)NC(=O)[C@H](Cc4ccccc4)NC(=O)[C@@H]4CCCN4C(=O)[C@H](CO)NC(=O)[C@H](CC(C)C)NC(=O)[C@H](CC(C)C)NC(=O)[C@H](CC(=O)O)NC(=O)[C@@H](NC(=O)[C@@H](NC(=O)[C@H](C)N)[C@@H](C)O)CSSC[C@H](NC(=O)[C@H](Cc4c[nH]c5ccccc45)NC(=O)CNC(=O)CNC(=O)[C@H](CCCNC(=N)N)NC(=O)[C@H](CCCCN)NC(=O)CNC(=O)[C@H](CCCNC(=N)N)NC(=O)[C@H](C)NC1=O)C(=O)N[C@@H](CC(=O)O)C(=O)N[C@@H](CCCCN)C(=O)N[C@@H](CCCNC(=N)N)C(=O)N[C@@H](C)C(=O)N[C@@H](C(C)C)C(=O)N3)C(=O)N[C@@H](C)C(=O)N[C@@H](C)C(=O)N[C@@H](Cc1c[nH]cn1)C(=O)N2 [ID29] (HELM PEPTIDE1{A.T.C.D.L.L.S.P.F.K.V.G.H.A.A.C.A.A.H.C.L.A.R.G.K.R.G.G.W.C.D.K.R.A.V.C.N.C.R.K}$PEPTIDE1,PEPTIDE1,3:R3-30:R3|PEPTIDE1,PEPTIDE1,16:R3-36:R3|PEPTIDE1,PEPTIDE1,20:R3-38:R3$$$V2.0; N-terminus and C-terminus assumed; bridges inferred)	64	128
CC[C@H](C)[C@@H]1NC(=O)[C@@H]2CSSC[C@@H](C(=O)N[C@@H](CCCNC(=N)N)C(=O)N[C@@H](CC(N)=O)C(=O)O)NC(=O)[C@H](CC(N)=O)NC(=O)[C@@H]3CSSC[C@H](NC(=O)[C@H](C)NC(=O)[C@H](C)NC(=O)[C@H](Cc4c[nH]cn4)NC(=O)CNC(=O)[C@H](C(C)C)NC(=O)[C@H](CCCCN)NC(=O)[C@H](Cc4ccccc4)NC(=O)[C@@H]4CCCN4C(=O)[C@H](CO)NC(=O)[C@H](CC(C)C)NC(=O)[C@H](CC(C)C)NC(=O)[C@H](CC(=O)O)NC(=O)[C@@H](NC(=O)[C@@H](NC(=O)[C@H](C)N)[C@@H](C)O)CSSC[C@H](NC(=O)[C@H](Cc4c[nH]c5ccccc45)NC(=O)CNC(=O)CNC(=O)[C@H](CCCNC(=N)N)NC(=O)[C@H](CCCCN)NC(=O)CNC(=O)[C@H](CCCNC(=N)N)NC(=O)[C@H](C)NC1=O)C(=O)N[C@@H](CC(=O)O)C(=O)NCC(=O)N[C@@H](CCCNC(=N)N)C(=O)N[C@@H](C)C(=O)N[C@@H](C(C)C)C(=O)N3)C(=O)N[C@@H](C)C(=O)N[C@@H](C)C(=O)N[C@@H](Cc1c[nH]cn1)C(=O)N2 [ID20] (HELM PEPTIDE1{A.T.C.D.L.L.S.P.F.K.V.G.H.A.A.C.A.A.H.C.I.A.R.G.K.R.G.G.W.C.D.G.R.A.V.C.N.C.R.N}$PEPTIDE1,PEPTIDE1,3:R3-30:R3|PEPTIDE1,PEPTIDE1,16:R3-36:R3|PEPTIDE1,PEPTIDE1,20:R3-38:R3$$$V2.0; N-terminus and C-terminus assumed; bridges inferred)	16	
CC[C@H](C)[C@@H]1NC(=O)[C@@H]2CSSC[C@@H](C(=O)N[C@@H](CCCNC(=N)N)C(=O)N[C@@H](CCCCN)C(=O)O)NC(=O)[C@H](CC(N)=O)NC(=O)[C@@H]3CSSC[C@H](NC(=O)[C@H](C)NC(=O)[C@H](C)NC(=O)[C@H](Cc4c[nH]cn4)NC(=O)CNC(=O)[C@H](C(C)C)NC(=O)CNC(=O)[C@H](Cc4ccccc4)NC(=O)[C@@H]4CCCN4C(=O)[C@H](CO)NC(=O)[C@H](CC(C)C)NC(=O)[C@H](CC(C)C)NC(=O)[C@H](CC(=O)O)NC(=O)[C@@H](NC(=O)[C@@H](NC(=O)[C@H](C)N)[C@@H](C)O)CSSC[C@H](NC(=O)[C@H](Cc4c[nH]c5ccccc45)NC(=O)CNC(=O)CNC(=O)[C@H](CCCNC(=N)N)NC(=O)[C@H](CCCCN)NC(=O)CNC(=O)[C@H](CCCNC(=N)N)NC(=O)[C@H](C)NC1=O)C(=O)N[C@@H](CC(=O)O)C(=O)N[C@@H](CCCCN)C(=O)N[C@@H](CCCNC(=N)N)C(=O)N[C@@H](C)C(=O)N[C@@H](C(C)C)C(=O)N3)C(=O)N[C@@H](C)C(=O)N[C@@H](C)C(=O)N[C@@H](Cc1c[nH]cn1)C(=O)N2 [ID11] (HELM PEPTIDE1{A.T.C.D.L.L.S.P.F.G.V.G.H.A.A.C.A.A.H.C.I.A.R.G.K.R.G.G.W.C.D.K.R.A.V.C.N.C.R.K}$PEPTIDE1,PEPTIDE1,3:R3-30:R3|PEPTIDE1,PEPTIDE1,16:R3-36:R3|PEPTIDE1,PEPTIDE1,20:R3-38:R3$$$V2.0; N-terminus and C-terminus assumed; bridges inferred)	16	
